Laboratory results from ChEMBL document CHEMBL5053523, “Design, synthesis, and structure-activity relationship of PD-1/PD-L1 inhibitors with a benzo[d]isoxazole scaffold” (Bioorg Med Chem Lett, 2021).
pIC50: −log10 of the molar value.

molecular target: T1, Programmed cell death protein 1/Programmed cell death 1 ligand 1 (Homo sapiens, UniProt Q15116+Q9NZQ7); assay: Inhibition of PD-1/PDL1 protein-protein interaction (unknown origin); assay type: protein-complex assay
T1 sequence (Q15116 whole entry): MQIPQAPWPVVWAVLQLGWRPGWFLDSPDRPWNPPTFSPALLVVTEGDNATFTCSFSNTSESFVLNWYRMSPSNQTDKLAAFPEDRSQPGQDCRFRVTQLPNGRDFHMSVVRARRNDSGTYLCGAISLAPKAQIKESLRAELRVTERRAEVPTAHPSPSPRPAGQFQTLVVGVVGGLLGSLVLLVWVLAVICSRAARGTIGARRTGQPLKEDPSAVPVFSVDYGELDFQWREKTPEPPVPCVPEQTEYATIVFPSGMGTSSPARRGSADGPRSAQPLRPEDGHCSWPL
T1 sequence (Q9NZQ7 whole entry): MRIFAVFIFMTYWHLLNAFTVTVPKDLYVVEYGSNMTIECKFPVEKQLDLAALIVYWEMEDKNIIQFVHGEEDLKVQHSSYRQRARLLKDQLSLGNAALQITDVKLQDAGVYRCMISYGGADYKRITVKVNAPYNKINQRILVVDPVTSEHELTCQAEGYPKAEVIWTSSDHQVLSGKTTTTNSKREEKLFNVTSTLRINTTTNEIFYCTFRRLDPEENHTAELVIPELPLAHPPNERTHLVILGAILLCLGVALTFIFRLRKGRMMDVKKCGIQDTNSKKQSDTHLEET

Row | SMILES | pIC50
1 | Cc1c(/C=C/c2c(Cl)cc(CNC(C)(CO)C(=O)O)cc2C(F)(F)F)cccc1-c1ccc2c(c1)OCCO2 (stereo unspecified) | 7.74
2 | Cc1c(NC(=O)c2cccc(CNCCO)n2)cccc1-c1ccccc1 | ≥ 8.00
3 | N#Cc1cncc(COc2cc(OC3CCc4c(-c5ccccc5)cccc43)c(Cl)cc2CN[C@@H](CO)C(=O)O)c1 (stereo partly specified) | > 7.00

molecular target: T1, Programmed cell death protein 1/Programmed cell death 1 ligand 1; assay: Inhibition of PD-1/PDL1 protein-protein interaction (unknown origin) by HTRF assay; assay type: protein-complex assay

Row | SMILES | pIC50
4 | O=C(O)CNCc1ccc2onc(Nc3cccc(-c4ccc5c(c4)OCCO5)c3Cl)c2c1 | 7.04
5 | CC(=O)NCCNCc1ccc2c(Nc3cccc(-c4ccc5c(c4)OCCO5)c3Cl)noc2c1 | 6.08
6 | OC1CCN(Cc2ccc3onc(Nc4cccc(-c5ccccc5)c4Cl)c3c2)C1 (racemic) | 6.33
7 | COC(=O)[C@H](CO)NCc1ccc2onc(Nc3cccc(-c4ccccc4)c3Cl)c2c1 | 5.79
8 | O=C(O)CNCc1ccc2onc(Nc3cccc(-c4ccccc4)c3Cl)c2c1 | 7.52
9 | O=C(O)C1CCCCN1Cc1ccc2onc(Nc3cccc(-c4ccccc4)c3Cl)c2c1 (racemic) | 7.15
10 | O=C(O)C1CCN(Cc2ccc3onc(Nc4cccc(-c5ccccc5)c4Cl)c3c2)C1 (racemic) | 6.35
11 | OC1CCN(Cc2ccc3onc(Nc4cccc(-c5ccc6c(c5)OCCO6)c4Cl)c3c2)C1 (racemic) | 5.89
12 | O=C(O)C1CCN1Cc1ccc2onc(Nc3cccc(-c4ccccc4)c3Cl)c2c1 (racemic) | 6.32
13 | CC(=O)NCCNCc1ccc2onc(Nc3cccc(-c4ccccc4)c3Cl)c2c1 | 6.71
14 | O=C(O)C1CCCN(Cc2ccc3onc(Nc4cccc(-c5ccccc5)c4Cl)c3c2)C1 (racemic) | 7.03
15 | O=C(O)[C@H](CO)NCc1ccc2c(Nc3cccc(-c4ccc5c(c4)OCCO5)c3Cl)noc2c1 | 5.76
16 | O=C(O)[C@H](CO)NCc1ccc2onc(Nc3cccc(-c4ccc5c(c4)OCCO5)c3Cl)c2c1 | 7.29
17 | O=C(O)CNCc1ccc2c(Nc3cccc(-c4ccccc4)c3Cl)noc2c1 | 6.14
18 | O=C(O)C1CCN(Cc2ccc3onc(Nc4cccc(-c5ccccc5)c4Cl)c3c2)CC1 | 6.21
19 | O=C(O)C1CCCN1Cc1ccc2onc(Nc3cccc(-c4ccccc4)c3Cl)c2c1 (racemic) | 7.07
20 | OC1CCN(Cc2ccc3c(Nc4cccc(-c5ccccc5)c4Cl)noc3c2)C1 (racemic) | 5.83
21 | CC(=O)NCCNCc1ccc2c(Nc3cccc(-c4ccccc4)c3Cl)noc2c1 | 5.69
22 | O=C(O)[C@H](CO)NCc1ccc2c(Nc3cccc(-c4ccccc4)c3Cl)noc2c1 | 5.62
23 | OCCNCc1ccc2c(Nc3cccc(-c4ccc5c(c4)OCCO5)c3Cl)noc2c1 | 6.12
24 | OCCNCc1ccc2c(Nc3cccc(-c4ccccc4)c3Cl)noc2c1 | 5.19
25 | OC1CCN(Cc2ccc3c(Nc4cccc(-c5ccc6c(c5)OCCO6)c4Cl)noc3c2)C1 (racemic) | 5.77
26 | O=C(O)C1CN(Cc2ccc3onc(Nc4cccc(-c5ccccc5)c4Cl)c3c2)C1 | 6.44
27 | OCCNCc1ccc2onc(Nc3cccc(-c4ccc5c(c4)OCCO5)c3Cl)c2c1 | 5.52
28 | CC(=O)NCCNCc1ccc2onc(Nc3cccc(-c4ccc5c(c4)OCCO5)c3Cl)c2c1 | 6.36
29 | O=C(O)[C@H](CO)NCc1ccc2onc(Nc3cccc(-c4ccccc4)c3Cl)c2c1 | 7.57
30 | O=C(O)CNCc1ccc2c(Nc3cccc(-c4ccc5c(c4)OCCO5)c3Cl)noc2c1 | 6.42
31 | OCCNCc1ccc2onc(Nc3cccc(-c4ccccc4)c3Cl)c2c1 | 6.10
